{"source": "patent US20250304612A1", "about": "“THERAPEUTIC AGENT FOR BLOOD CANCER” (Aptabio Therapeutics Inc., priority 2017, published 2025)", "assay_in_all_cases": "MTT cytotoxicity assay, drug-resistant blood cancer cells", "format_in_all_cases": "cell-based", "key": {"[1]": {"tested_on": "Cytarabine-resistant HL-60", "conditions": "Homo sapiens, 120 h; Cytarabine-resistant HL-60, MTT, 5 days; read-out: IC50, cytotoxic effects on drug-resistant blood cancer cells"}, "[2]": {"tested_on": "Cytarabine-resistant MV-4-11", "conditions": "Homo sapiens, MV4-11, 120 h; Cytarabine-resistant MV-4-11, MTT, 5 days; read-out: IC50, cytotoxic effects on drug-resistant blood cancer cells"}, "[3]": {"tested_on": "Decitabine-resistant MOLM13", "conditions": "Homo sapiens, MOLM-13, 120 h, 5 days, read-out: IC50, cytotoxic effects on drug-resistant blood cancer cells", "method": "(§1) Each oligonucleotide-modified nucleic acid was diluted in a 10 mM Tris-HCl (pH 7.4) solution to a final concentration of 100 μM. The diluted solution was allowed to stand at 94° C. for 5 minutes and then the tube was allowed to stand on ice. The resulting solution was added with a 2M KCl solution such that a final concentration of the KCl solution became 50 mM, allowed to stand at 60° C. for 3 hours and was slowly cooled to room temperature. Each oligonucleotide was diluted in a 10 mM Tris-HCl (pH 7.4) solution to a concentration of 10 μM, and was allowed to stand at 94° C. for 5 minutes, and the tube was allowed to stand on ice. The resulting solution was added with a 2M KCl solution such that the final concentration of the KCl solution became 50 mM, and allowed to stand at 60° C. for 3 hours and then slowly cooled to room temperature, which was then used for the present Example.\n(§2) On the day before the experiment, 190 μl of a culture medium (at a concentration of 10^4 to 10^5 cells/ml) containing blood cancer cells such as HL60, MV-4-11, CCRF-CEM, MOLT-4 and MOLM-13 cell lines, and drug-resistant blood cancer cells such as azacitidine (AZA-1)-resistant MOLM13, decitabine (Dec-5)-resistant MOLM13 and cytarabine (AraC-1)-resistant MOLM13 cell lines, and normal cells such as WI38, CCD-18co and Fa2N4 cells were seeded on a 96-well plate. The next day, 10 μl of the oligonucleotide-modified nucleic acid solution prepared in Example 2 was added and then cultured for 5 days.\n(§3) Five days after drug treatment, MTT assay was performed to measure cytotoxicity of the cell lines [see JBC 1999, 26369]."}, "[4]": {"tested_on": "Cytarabine-resistant MOLM13", "conditions": "Homo sapiens, MOLM-13, 120 h, 5 days, read-out: IC50, cytotoxic effects on drug-resistant blood cancer cells", "method": "as §1, §2, §3"}, "[5]": {"tested_on": "Azacitidine-resistant MOLM13", "conditions": "Homo sapiens, MOLM-13, 120 h, 5 days, read-out: IC50, cytotoxic effects on drug-resistant blood cancer cells", "method": "as §1, §2, §3"}}}
{"smiles": "Nc1ccn([C@@H]2O[C@H](CO)[C@@H](O)[C@@H]2O)c(=O)n1", "note": "[Cytarabine, cytarabine]", "values": [{"measurement": "IC50", "setting": "[1]", "result": "> 30", "unit": "µM"}, {"measurement": "IC50", "setting": "[2]", "result": "> 20", "unit": "µM"}, {"measurement": "IC50", "setting": "[3]", "result": 3.49, "unit": "µM"}, {"measurement": "IC50", "setting": "[4]", "result": "> 10", "unit": "µM"}, {"measurement": "IC50", "setting": "[5]", "result": 3.5, "unit": "µM"}]}
